Experimental data reported in patent publication US11505543B2, “4-oxo-3,4-dihydroquinazoline compounds as inhibitors of human immunodeficiency virus replication” (VIIV HEALTHCARE UK (NO.5) LIMITED, priority 2018, dated 2022).

Tests used:
[1] = Compound cytotoxicity, XTT-based colorimetric assay; assay type: cell-based; conditions: human, uninfected MT2 cells, day 4, XTT
Description: Compound cytotoxicity and the corresponding CC50 values were determined using the same protocol as described in the antiviral assay except that uninfected cells were used. Cytotoxicity was assessed on day 4 in uninfected MT2 cells by using a XTT (2,3-bis[2-Methoxy-4-nitro-5-sulfophenyl]-2H-tetrazolium-5-carboxyanilide inner salt)-based colorimetric assay (Sigma-Aldrich, St Louis, Mo.).

[2] = test system: recombinant NL4-3 virus (nef section replaced with Renilla luciferase gene) in MT-2 cells; assay: HIV cell culture assay (antiviral activity, luciferase readout); assay type: cell-based; conditions: Renilla, NL43, MT-2 cells infected for 4-5 days with recombinant NL4-3 Renilla luciferase virus, serial dilutions of compound
Description: HIV cell culture assay—MT-2 cells, 293T cells and the proviral DNA clone of NL4-3 virus were obtained from the NIH AIDS Research and Reference Reagent Program. MT-2 cells were propagated in RPMI 1640 media supplemented with 10% heat inactivated fetal bovine serum (FBS), 100 μg/ml penicillin G and up to 100 units/mL streptomycin. The 293T cells were propagated in DMEM media supplemented with 10% heat inactivated FBS, 100 μg/mL penicillin G and 100 μg/mL streptomycin. A recombinant NL4-3 proviral clone, in which a section of the nef gene was replaced with the Renilla luciferase gene, was used to make the reference virus used in these studies. The recombinant virus was prepared through transfection of the recombinant NL4-3 proviral clone into 293T cells using Transit-293 Transfection Reagent from Mirus Bio LLC (Madison, Wis.). Supernatent was harvested after 2-3 days and the amount of virus present was titered in MT-2 cells using luciferase enzyme activity as a marker by measuring luciferase enzyme activity. Luciferase was quantitated using the EnduRen Live Cell Substrate from Promega (Madison, Wis.). Antiviral activities of compounds toward the recombinant virus were quantified by measuring luciferase activity in MT-2 cells infected for 4-5 days with the recombinant virus in the presence of serial dilutions of the compound.
The 50% effective concentration (EC50) was calculated by using the exponential form of the median effect equation where (Fa)=1/[1+(ED50/drug conc.)^m] (Johnson VA, Byington RT. Infectivity Assay. In Techniques in HIV Research. ed. Aldovini A, Walker BD. 71-76. New York: Stockton Press. 1990). Curve fitting and analysis were performed with ActivityBase XE Runner software version 9.1.0.4 using model 203 (ID Business Solutions, LTD, Guildford, UK).

SMILES | CC50 at 4 day [1] [nM] | EC50 [2] [nM]
Cn1nc(NS(C)(=O)=O)c2c(Cl)ccc(-n3c([C@H](Cc4cc(F)cc(F)c4)NC(=O)Cn4nc(C(F)F)c5c4C(F)(F)[C@@H]4C[C@H]54)nc4cc(-c5cccc(S(C)(=O)=O)c5)ccc4c3=O)c21 (atropisomer, axis not shown; (aR)) [Example 54, N-((S)-1-(3-(4-chloro-1-methyl-3-(methylsulfonamido)-1H-indazol-7-yl)-7-(3-(methylsulfonyl)phenyl)-4-oxo-3,4-dihydroquinazolin-2-yl)-2-(3,5-difluorophenyl)ethyl)-2-((3bS,4aR)-3-(difluoromethyl)-5,5-difluoro-3b,4,4a,5-tetrahydro-1H-cyclopropa[3,4]cyclopenta[1,2-c]pyrazol-1-yl)acetamide] | > 1000 | 0.21
Cn1nc(NS(C)(=O)=O)c2c(Cl)ccc(-n3c([C@H](Cc4cc(F)cc(F)c4)NC(=O)Cn4nc(C(F)F)c5c4C(F)(F)[C@@H]4C[C@H]54)nc4cc(-c5ccc(Cl)c(C(=O)O)c5)ccc4c3=O)c21 (atropisomer, axis not shown; (aR)) [Example 57] | > 1000 | 17
COc1ccc(-c2ccc3c(=O)n(-c4ccc(Cl)c5c(NS(C)(=O)=O)nn(C)c45)c([C@H](Cc4cc(F)cc(F)c4)NC(=O)Cn4nc(C(F)F)c5c4C(F)(F)[C@@H]4C[C@H]54)nc3c2)cn1 (atropisomer, axis not shown; (aR)) [Example 58, N-((S)-1-(3-(4-chloro-1-methyl-3-(methylsulfonamido)-1H-indazol-7-yl)-7-(6-methoxypyridin-3-yl)-4-oxo-3,4-dihydroquinazolin-2-yl)-2-(3,5-difluorophenyl)ethyl)-2-((3bS,4aR)-3-(difluoromethyl)-5,5-difluoro-3b,4,4a,5-tetrahydro-1H-cyclopropa[3,4]cyclopenta[1,2-c]pyrazol-1-yl)acetamide] | > 1000 | 0.34
CC(C)c1ccc(-c2ccc3c(=O)n(-c4ccc(Cl)c5c(NS(C)(=O)=O)nn(C)c45)c([C@H](Cc4cc(F)cc(F)c4)NC(=O)Cn4nc(C(F)F)c5c4C(F)(F)[C@@H]4C[C@H]54)nc3c2)cc1 (atropisomer, axis not shown; (aR)) [Example 59, N-((S)-1-(3-(4-chloro-1-methyl-3-(methylsulfonamido)-1H-indazol-7-yl)-7-(4-isopropylphenyl)-4-oxo-3,4-dihydroquinazolin-2-yl)-2-(3,5-difluorophenyl)ethyl)-2-((3bS,4aR)-3-(difluoromethyl)-5,5-difluoro-3b,4,4a,5-tetrahydro-1H-cyclopropa[3,4]cyclopenta[1,2-c]pyrazol-1-yl)acetamide] | > 1000 | 5.3
Cc1nn(C)c(C)c1-c1ccc2c(=O)n(-c3ccc(Cl)c4c(NS(C)(=O)=O)nn(C)c34)c([C@H](Cc3cc(F)cc(F)c3)NC(=O)Cn3nc(C(F)F)c4c3C(F)(F)[C@@H]3C[C@H]43)nc2c1 (atropisomer, axis not shown; (aR)) [Example 60, N-((S)-1-(3-(4-chloro-1-methyl-3-(methylsulfonamido)-1H-indazol-7-yl)-4-oxo-7-(1,3,5-trimethyl-1H-pyrazol-4-yl)-3,4-dihydroquinazolin-2-yl)-2-(3,5-difluorophenyl)ethyl)-2-((3bS,4aR)-3-(difluoromethyl)-5,5-difluoro-3b,4,4a,5-tetrahydro-1H-cyclopropa[3,4]cyclopenta[1,2-c]pyrazol-1-yl)acetamide] | > 1000 | 0.32
CNC(=O)c1ccc(-c2ccc3c(=O)n(-c4ccc(Cl)c5c(NS(C)(=O)=O)nn(C)c45)c([C@H](Cc4cc(F)cc(F)c4)NC(=O)Cn4nc(C(F)F)c5c4C(F)(F)[C@@H]4C[C@H]54)nc3c2)cc1 (atropisomer, axis not shown; (aR)) [Example 62, 4-(3-(4-chloro-1-methyl-3-(methylsulfonamido)-1H-indazol-7-yl)-2-((S)-1-(2-((3bS,4aR)-3-(difluoromethyl)-5,5-difluoro-3b,4,4a,5-tetrahydro-1H-cyclopropa[3,4]cyclopenta[1,2-c]pyrazol-1-yl)acetamido)-2-(3,5-difluorophenyl)ethyl)-4-oxo-3,4-dihydroquinazolin-7-yl)-N-methylbenzamide] | > 1000 | 0.48
Cn1nc(NS(C)(=O)=O)c2c(Cl)ccc(-n3c([C@H](Cc4cc(F)cc(F)c4)NC(=O)Cn4nc(C(F)F)c5c4C(F)(F)[C@@H]4C[C@H]54)nc4cc(-c5ccc(Cl)cc5Cl)ccc4c3=O)c21 (atropisomer, axis not shown; (aR)) [Example 63, N-((S)-1-(3-(4-chloro-1-methyl-3-(methylsulfonamido)-1H-indazol-7-yl)-7-(2,4-dichlorophenyl)-4-oxo-3,4-dihydroquinazolin-2-yl)-2-(3,5-difluorophenyl)ethyl)-2-((3bS,4aR)-3-(difluoromethyl)-5,5-difluoro-3b,4,4a,5-tetrahydro-1H-cyclopropa[3,4]cyclopenta[1,2-c]pyrazol-1-yl)acetamide] | > 1000 | 7
Cn1nc(NS(C)(=O)=O)c2c(Cl)ccc(-n3c([C@H](Cc4cc(F)cc(F)c4)NC(=O)Cn4nc(C(F)F)c5c4C(F)(F)[C@@H]4C[C@H]54)nc4cc(-c5cccc(F)c5F)ccc4c3=O)c21 (atropisomer, axis not shown; (aR)) [Example 68, N-((S)-1-(3-(4-chloro-1-methyl-3-(methylsulfonamido)-1H-indazol-7-yl)-7-(2,3-difluorophenyl)-4-oxo-3,4-dihydroquinazolin-2-yl)-2-(3,5-difluorophenyl)ethyl)-2-((3bS,4aR)-3-(difluoromethyl)-5,5-difluoro-3b,4,4a,5-tetrahydro-1H-cyclopropa[3,4]cyclopenta[1,2-c]pyrazol-1-yl)acetamide] | > 1000 | 0.63
COc1c(F)cc(-c2ccc3c(=O)n(-c4ccc(Cl)c5c(NS(C)(=O)=O)nn(C)c45)c([C@H](Cc4cc(F)cc(F)c4)NC(=O)Cn4nc(C(F)F)c5c4C(F)(F)[C@@H]4C[C@H]54)nc3c2)cc1F (atropisomer, axis not shown; (aR)) [Example 70, N-((S)-1-(3-(4-chloro-1-methyl-3-(methylsulfonamido)-1H-indazol-7-yl)-7-(3,5-difluoro-4-methoxyphenyl)-4-oxo-3,4-dihydroquinazolin-2-yl)-2-(3,5-difluorophenyl)ethyl)-2-((3bS,4aR)-3-(difluoromethyl)-5,5-difluoro-3b,4,4a,5-tetrahydro-1H-cyclopropa[3,4]cyclopenta[1,2-c]pyrazol-1-yl)acetamide] | > 1000 | 0.92
Cn1nc(NS(C)(=O)=O)c2c(Cl)ccc(-n3c([C@H](Cc4cc(F)cc(F)c4)NC(=O)Cn4nc(C(F)F)c5c4C(F)(F)[C@@H]4C[C@H]54)nc4cc(-c5cccnc5)ccc4c3=O)c21 (atropisomer, axis not shown; (aR)) [Example 71, N-((S)-1-(3-(4-chloro-1-methyl-3-(methylsulfonamido)-1H-indazol-7-yl)-4-oxo-7-(pyridin-3-yl)-3,4-dihydroquinazolin-2-yl)-2-(3,5-difluorophenyl)ethyl)-2-((3bS,4aR)-3-(difluoromethyl)-5,5-difluoro-3b,4,4a,5-tetrahydro-1H-cyclopropa[3,4]cyclopenta[1,2-c]pyrazol-1-yl)acetamide] | > 1000 | 0.18
Cn1nc(NS(C)(=O)=O)c2c(Cl)ccc(-n3c([C@H](Cc4cc(F)cc(F)c4)NC(=O)Cn4nc(C(F)F)c5c4C(F)(F)[C@@H]4C[C@H]54)nc4cc(-c5ccc(C(=O)O)c(Cl)c5)ccc4c3=O)c21 (atropisomer, axis not shown; (aR)) [Example 75, 2-chloro-4-(3-(4-chloro-1-methyl-3-(methylsulfonamido)-1H-indazol-7-yl)-2-((S)-1-(2-((3bS,4aR)-3-(difluoromethyl)-5,5-difluoro-3b,4,4a,5-tetrahydro-1H-cyclopropa[3,4]cyclopenta[1,2-c]pyrazol-1-yl)acetamido)-2-(3,5-difluorophenyl)ethyl)-4-oxo-3,4-dihydroquinazolin-7-yl)benzoic acid] | > 1000 | 29
